Test systems include A549 NSCLC; HOP-92 NSCLC; COLO 205 colon; HCT-15 colon; IGROV1 ovarian; U251 CNS; K-562 leukemia; KM12 colon; SK-MEL-5 melanoma; HL-60(TB) leukemia.
What all share (assay): DTP human tumour cell line panel, 48 h

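Protocol summary: plate cells (96-well), add compound at 5 concentrations, incubate 48 h, interpolate endpoints linearly. The concentration for 50% growth inhibition is given as GI50. TGI denotes the concentration required for complete inhibition of growth.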

The TGI is the concentration giving total growth inhibition. Read a high TGI as lower sensitivity of the cells. As for `O=C1C(=O)N(C2C3CC4CC(C3)CC2C4)C(=O)C(=O)C1c1nc2ccccc2o1` (centres undefined), the TGI with A549 NSCLC, in the assay on HOP-92 NSCLC, in the assay with COLO 205 colon, in the assay on HCT-15 colon, in the assay on IGROV1 ovarian and in the assay with U251 CNS was over 100 µM each time. Also, the TGI in the assay with K-562 leukemia is 77.4 µM; with KM12 colon, over 100 µM.
Regarding `N#Cc1ccccc1NC(=O)c1ccccc1`, the TGI with A549 NSCLC, in the assay on HOP-92 NSCLC, in the assay with SK-MEL-5 melanoma, in the assay on COLO 205 colon, with HCT-15 colon and in the assay with IGROV1 ovarian was over 100 µM throughout. Besides, the TGI in the assay on U251 CNS, with K-562 leukemia and in the assay with KM12 colon was over 100 µM in each case.
A word on the GI50: it is the concentration giving 50% growth inhibition. Take `Cc1c(C)c2ccc(OC/C=C3\CCC(=O)O3)cc2oc1=O`: the GI50 in the assay with A549 NSCLC is 16.9 µM; with HOP-92 NSCLC, 15 µM; in the assay on SK-MEL-5 melanoma it was 17.4 µM; in the assay with COLO 205 colon, 16.4 µM; in the assay on HCT-15 colon it was 5.4 µM; in the assay on IGROV1 ovarian it was 14.2 µM. Further, the GI50 with U251 CNS is 15.7 µM; in the assay on K-562 leukemia it was 29.1 µM; with KM12 colon, 13.8 µM. The concentration for total growth inhibition (TGI) stood at 31.9 µM in the assay with A549 NSCLC; 31.2 µM with HOP-92 NSCLC; 32.8 µM in the assay on SK-MEL-5 melanoma; 48.9 µM with COLO 205 colon; 20.2 µM in the assay with HCT-15 colon; 28.9 µM with IGROV1 ovarian. For the same compound, the concentration for total growth inhibition (TGI) in the assay on U251 CNS stood at 29.3 µM; in the assay on K-562 leukemia it was 88.7 µM; in the assay with KM12 colon it was 31.3 µM.
As to `COc1cc(Oc2c(O)c(C)c(OC)c(C(C)=O)c2O)c(C(C)=O)c(O)c1C`, the TGI with A549 NSCLC, in the assay with HOP-92 NSCLC, with SK-MEL-5 melanoma, in the assay with COLO 205 colon, in the assay with HCT-15 colon and in the assay on IGROV1 ovarian was over 100 µM each time. Also, the concentration for total growth inhibition (TGI) with U251 CNS and with KM12 colon was over 100 µM each time.
Take `COC(=O)C(Cc1nc2ccc(Cl)cc2[nH]c1=O)C(=O)C(=O)Nc1ccccc1[N+](=O)[O-]` (centres undefined): the TGI in the assay with A549 NSCLC, with HL-60(TB) leukemia, in the assay on SK-MEL-5 melanoma, in the assay on COLO 205 colon, with HCT-15 colon and in the assay with IGROV1 ovarian was over 100 µM each time. The TGI in the assay on U251 CNS, in the assay on K-562 leukemia and in the assay on KM12 colon was over 100 µM each time.
With `CN(C)CCNC(=O)c1ccc(Cl)c2c(Nc3ccc(S(N)(=O)=O)cc3)c3ccccc3nc12`, the TGI was 11.9 µM in the assay on A549 NSCLC; 8.54 µM in the assay with HOP-92 NSCLC; 11.8 µM in the assay with SK-MEL-5 melanoma; 2.15 µM in the assay on COLO 205 colon; 15.5 µM in the assay with HCT-15 colon; 16.5 µM in the assay on IGROV1 ovarian. Also, the TGI stood at 14.1 µM in the assay with U251 CNS, 11.4 µM with K-562 leukemia and 5.12 µM in the assay with KM12 colon.
On to `CC(=O)C1=C([O-])C(C)OC1=O.CC(=O)C1=C([O-])C(C)OC1=O.[NH-]C1CCCC[C@H]1[NH-].[Pt+4]` (centres undefined), for which the GI50 with A549 NSCLC was 88.1 µM; in the assay with HL-60(TB) leukemia, 16.1 µM; in the assay on SK-MEL-5 melanoma, 57.5 µM; in the assay on COLO 205 colon it was 35.1 µM; in the assay on HCT-15 colon it was 67.4 µM; in the assay with IGROV1 ovarian it was over 100 µM. Also, the GI50 was over 100 µM with U251 CNS, 61.2 µM in the assay on K-562 leukemia and over 100 µM in the assay with KM12 colon. Besides, the TGI with A549 NSCLC, in the assay on HL-60(TB) leukemia, with SK-MEL-5 melanoma, in the assay with COLO 205 colon, with HCT-15 colon and with IGROV1 ovarian was over 100 µM in each case. In addition, the TGI in the assay with U251 CNS, in the assay on K-562 leukemia and with KM12 colon was over 100 µM each time.
For the compound `COC(=O)[C@]1(C)CCC[C@@]2(C)C1CCC1=C[C@@]3(C(C)C)CC[C@]12OO3` (some centres undefined), the total growth inhibition concentration (TGI) was over 100 µM with A549 NSCLC; 42 µM in the assay with HL-60(TB) leukemia; 33.3 µM with SK-MEL-5 melanoma; 45 µM in the assay with COLO 205 colon; over 100 µM with HCT-15 colon; over 100 µM in the assay on IGROV1 ovarian. Besides, the TGI was over 100 µM with U251 CNS, over 100 µM with K-562 leukemia and 66.5 µM in the assay with KM12 colon.
Turning to `COC(=O)C(=O)C(C(=O)C=C(C)C)C(=O)C(=O)Nc1cccc(C(C)=O)c1` (centres undefined), the TGI in the assay on A549 NSCLC, in the assay with HL-60(TB) leukemia, in the assay with SK-MEL-5 melanoma, in the assay with COLO 205 colon, in the assay on HCT-15 colon and with IGROV1 ovarian was over 100 µM each time. For the same compound, the TGI in the assay with U251 CNS, in the assay with K-562 leukemia and with KM12 colon was over 100 µM each time.
On to `CCC1CN2CCc3cc(OC)c(OC)cc3C2CC1CC1c2cc(OC)c(OC)cc2CCN1C(=O)CNC(=O)OC(C)(C)C` (centres undefined), for which the total growth inhibition concentration (TGI) in the assay on A549 NSCLC came to 62.6 µM; with HL-60(TB) leukemia, 17.6 µM; in the assay with SK-MEL-5 melanoma, 21 µM; in the assay on COLO 205 colon it was 12.7 µM; in the assay with HCT-15 colon, 68.7 µM; in the assay on IGROV1 ovarian, 74.6 µM. In addition, the TGI in the assay with U251 CNS is over 100 µM; with K-562 leukemia, 14.9 µM; in the assay on KM12 colon, 11.4 µM.
For the compound `CC(C)=CC(=O)CC(=O)C(=O)Nc1ccc(Cl)c(Cl)c1`, the TGI with A549 NSCLC, in the assay with HL-60(TB) leukemia, in the assay on COLO 205 colon, in the assay with HCT-15 colon, in the assay with IGROV1 ovarian and in the assay with U251 CNS was over 100 µM each time. Also, the TGI in the assay with K-562 leukemia and in the assay on KM12 colon was over 100 µM throughout.
Turning to `CN(C)c1ccc(C(N)=O)cn1`, the TGI in the assay with A549 NSCLC, in the assay with HL-60(TB) leukemia, with SK-MEL-5 melanoma, in the assay on COLO 205 colon, in the assay on HCT-15 colon and in the assay with IGROV1 ovarian was over 100 µM throughout. Also, the TGI in the assay with U251 CNS, with K-562 leukemia and in the assay with KM12 colon was over 100 µM each time.
With `COc1ccc2c(c1)nc(N)c1c3cccnc3cn21`, the GI50 in the assay on A549 NSCLC is 0.0565 µM; in the assay with HL-60(TB) leukemia it was 0.0313 µM; in the assay on SK-MEL-5 melanoma, 0.0322 µM; in the assay with COLO 205 colon, 0.0452 µM; in the assay on HCT-15 colon, 0.0456 µM; in the assay with IGROV1 ovarian, 0.106 µM. In addition, the values for the GI50 with U251 CNS, with K-562 leukemia and in the assay with KM12 colon were 0.0474 µM, 0.038 µM and 0.0473 µM, respectively. The total growth inhibition concentration (TGI) with A549 NSCLC is 16.6 µM; with HL-60(TB) leukemia, 18.3 µM; in the assay on SK-MEL-5 melanoma, 0.836 µM; in the assay on COLO 205 colon, 0.668 µM; with HCT-15 colon it was 33.7 µM; in the assay on IGROV1 ovarian it was 37.1 µM. The concentration for total growth inhibition (TGI) in the assay on U251 CNS is 14.6 µM; in the assay with K-562 leukemia it was 24.9 µM; in the assay on KM12 colon, over 41.2 µM.
`CN(C)C(=O)C1CCC(=C2C(=O)OC(C)(C)OC2=O)N1C` (centres undefined): the TGI in the assay with A549 NSCLC, with HOP-92 NSCLC, in the assay on SK-MEL-5 melanoma, in the assay with COLO 205 colon, in the assay with HCT-15 colon and in the assay with IGROV1 ovarian was over 100 µM throughout. The TGI in the assay with U251 CNS, in the assay with K-562 leukemia and in the assay on KM12 colon was over 100 µM each time.
Consider `CCOC(=O)/C(C#N)=C1\N[C@H](C(=O)OCC)CO1`, for which the TGI in the assay with A549 NSCLC, in the assay on HL-60(TB) leukemia, with SK-MEL-5 melanoma, with COLO 205 colon, in the assay on HCT-15 colon and in the assay on IGROV1 ovarian was over 100 µM in each case. For the same compound, the TGI with U251 CNS, in the assay with K-562 leukemia and with KM12 colon was over 100 µM in each case.
Take `NCc1ccc(-n2c(-c3nonc3N)nc3cnccc32)cc1`: the GI50 with A549 NSCLC was 6.86 µM; with HL-60(TB) leukemia it was over 11.8 µM; in the assay with SK-MEL-5 melanoma, 9.25 µM; in the assay with COLO 205 colon, 5.53 µM; in the assay with HCT-15 colon it was 6.85 µM; in the assay on IGROV1 ovarian it was over 25 µM. In addition, the GI50 in the assay on U251 CNS was 8.94 µM; in the assay on K-562 leukemia it was over 25 µM; in the assay with KM12 colon, 8.79 µM. For the same compound, the TGI in the assay on A549 NSCLC, in the assay on HL-60(TB) leukemia, with SK-MEL-5 melanoma, in the assay on COLO 205 colon, in the assay with HCT-15 colon and in the assay with IGROV1 ovarian was over 25 µM in each case. The TGI with U251 CNS, in the assay with K-562 leukemia and in the assay with KM12 colon was over 25 µM in each case.
For `C[C@H](CSC(=O)c1ccccc1)C(=O)N1c2ccccc2C[C@H]1C(=O)O`, the TGI in the assay on A549 NSCLC, in the assay with HL-60(TB) leukemia, with SK-MEL-5 melanoma, with COLO 205 colon, in the assay with HCT-15 colon and with IGROV1 ovarian was over 100 µM throughout. The TGI in the assay with U251 CNS is over 100 µM; in the assay on K-562 leukemia it was over 100 µM; in the assay with KM12 colon it was over 10 µM.
`CS(=O)(=O)Nc1cc(-c2ccc3ncnc(Nc4ccc5c(cnn5Cc5ccc(F)cc5)c4)c3c2)cnc1Cl`: the GI50 was 3.38 µM in the assay on A549 NSCLC; 0.435 µM in the assay on HL-60(TB) leukemia; 1.52 µM with SK-MEL-5 melanoma; 1.96 µM with COLO 205 colon; 3.21 µM with HCT-15 colon; 0.314 µM with IGROV1 ovarian. Also, the GI50 with U251 CNS is 1.41 µM; in the assay with K-562 leukemia, 1.4 µM; in the assay on KM12 colon, 2.93 µM. Further, the TGI stood at 63.8 µM with A549 NSCLC; 2.75 µM in the assay with HL-60(TB) leukemia; 2.89 µM in the assay with SK-MEL-5 melanoma; 6.02 µM in the assay on COLO 205 colon; 21.3 µM in the assay on HCT-15 colon; 1.71 µM in the assay with IGROV1 ovarian. Moreover, the figures for the TGI with U251 CNS, with K-562 leukemia and in the assay with KM12 colon were 11.1 µM, 12.7 µM and 9.72 µM, respectively.

Values taken from PubChem BioAssay (NCI).
